From ChEMBL document CHEMBL1201862, “PubChem BioAssay data set” (2004)
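96-well plates; 48 h exposure; 5 concentrations. Endpoints by linear interpolation between flanking doses. Not reached: highest tested concentration assigned. Abbreviation: GI50, concentration required for 50% inhibition of growth.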 Calls of active or inactive are those of the source. Cut-off read from the data, not from the text of the source: active = GI50 up to about 1.1 µM and inactive = higher.

What was measured:
Experiment in all cases: inhibition of tumour cell growth, NCI panel, 48 h
T47D = system: T47D
BT-549 = system: BT-549
PC-3 = system: PC-3
LXFL 529 = system: LXFL 529
DU-145 = system: DU-145
KM-20L2 = system: KM-20L2
DMS-273 = system: DMS-273
DLD-1 = system: DLD-1
RXF 631 = system: RXF 631

Structure (SMILES) | GI50 (T47D) | GI50 (BT-549) | GI50 (PC-3) | GI50 (LXFL 529) | GI50 (DU-145) | GI50 (KM-20L2) | GI50 (DMS-273) | GI50 (DLD-1) | GI50 (RXF 631)
CC(=O)Nc1cc2c(cc1O)CC[C@@H]1[C@@H]2CC[C@]2(C)[C@@H](O)CC[C@@H]12 | 30.3 µM (inactive) | 31.7 µM (inactive) | 35.5 µM (inactive) |  |  |  |  |  | 
C=CCN1C(N)=C(C(N)=O)S/C1=C1/SC(=S)N(c2ccc(C)cc2)C1=O |  |  |  | > 100 µM (inactive) |  |  |  |  | 
CCCSc1ccc2[nH]c(N3C(=O)/C(=C/c4cc(OC)c(OC)c(OC)c4)N=C3c3ccccc3)cc2c1 | 11 µM (inactive) | 10.8 µM (inactive) | 16.1 µM (inactive) |  | 10.1 µM (inactive) |  |  |  | 
N#CC(NC12CC3CC(CC(C3)C1)C2)c1ccccc1C(F)(F)F (stereo unspecified) |  |  |  | > 100 µM (inactive) |  | > 100 µM (inactive) | > 100 µM (inactive) | > 100 µM (inactive) | 
O=c1ccc2ccc(S)cc2o1 | > 100 µM (inactive) | > 100 µM (inactive) | > 100 µM (inactive) |  | > 100 µM (inactive) |  |  |  | 
Cc1c(C#N)c2nnn(C)c(=O)n2c1-c1ccccc1 |  | 87.7 µM (inactive) | 54.5 µM (inactive) |  |  |  |  |  | 
Cn1cc(C(=O)/C(Cl)=C(\Cl)C(=O)O)c2ccccc21 |  |  |  |  |  | > 100 µM (inactive) | > 100 µM (inactive) | > 100 µM (inactive) | > 100 µM (inactive)
CC(C)OP(=O)(OC(C)C)/C(=N/Nc1ccc([N+](=O)[O-])cc1)NCCO |  |  |  | 38.4 µM (inactive) |  | 85.7 µM (inactive) | > 100 µM (inactive) | > 100 µM (inactive) | 
COc1cccc(N/C(C)=C2/CCOC2=O)c1 | > 10 µM (inactive) |  | > 10 µM (inactive) |  | > 10 µM (inactive) |  |  |  | 
CC(C)(C)CI |  |  |  | 33.3 µM (inactive) |  | 32.2 µM (inactive) | 15.1 µM (inactive) | 34.2 µM (inactive) | 32.3 µM (inactive)
O=C(O)c1ccc([Se][Se]c2ccc(C(=O)O)cc2)cc1 |  |  |  | 23 µM (inactive) |  | 33 µM (inactive) | 21.9 µM (inactive) | 34 µM (inactive) | 19 µM (inactive)
NC1C=NNC1=O (stereo unspecified) |  |  |  | > 100 µM (inactive) |  | > 100 µM (inactive) | > 100 µM (inactive) | > 100 µM (inactive) | 
COc1cc(Nc2nc3cc(C(F)(F)F)ccc3n3cccc23)cc(OC)c1OC | 2.96 µM (inactive) | 89.5 µM (inactive) | > 100 µM (inactive) |  | > 100 µM (inactive) |  |  |  | 
Cc1c2ccnc(C(F)(F)F)c2cc2c1[nH]c1ccccc12 |  |  |  |  |  | > 125 µM (inactive) | > 125 µM (inactive) | > 125 µM (inactive) | 
COP(=O)(OC)C(N)CCSC (stereo unspecified) |  | > 100 µM (inactive) | > 100 µM (inactive) |  |  |  |  |  | 
CCCn1c(CN(Cc2nc3ccccc3n2CCC)Cc2nc3ccccc3n2CCC)nc2ccccc21 | 2.55 µM (inactive) | 5.71 µM (inactive) | 3.31 µM (inactive) |  | 7.83 µM (inactive) |  |  |  | 
CC(O)C(O)C(N)CC=O (stereo unspecified) |  |  |  |  |  | > 500 µM (inactive) | > 500 µM (inactive) | > 500 µM (inactive) | 
O=S1(=O)CS(=O)(=O)OCCCO1 | > 100 µM (inactive) |  | > 100 µM (inactive) |  | > 100 µM (inactive) |  |  |  | 
CC1(C)CCCC2(C)[C@@H]1CC[C@]13C[C@](C)(CC[C@@H]21)[C@@H]3CO (stereo partly specified) |  |  |  | > 100 µM (inactive) |  | > 100 µM (inactive) | > 100 µM (inactive) | > 100 µM (inactive) | > 100 µM (inactive)
C#C[C@]1(O)[C@@H](CO)O[C@@H](n2ccc(=O)[nH]c2=O)[C@@H]1O | 0.0692 µM (active) | 0.374 µM (active) | 0.25 µM (active) |  | 0.0391 µM (active) |  |  |  | 
